Results published in the supplement of paper PMC10307832.

Experiments:
Test in all cases: relative viability (nuclei count vs DMSO), 5 days (fraction); higher = more cells survive
[1] = compound: CCN1CCC(CC1)N2C=C(N=N2)CNC3=CC4=C(C(=CN=C4C(=C3)Cl)C#N)NC5=CC(=C(C=C5)F)Cl [KIN001-266] + CC(=O)c1c(C)c2cnc(Nc3ccc(N4CCNCC4)cn3)nc2n(C2CCCC2)c1=O [Palbociclib] (partner 0.5 µM)
Outline: (§1)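 Nuclei were stained with Hoechst during a one-step fixation (final 0.05% Triton X-100, 1% formaldehyde, 1 ug/ml Hoechst) carried out 5 days after dosing, then counted on 4× images. The cells, lung cancer lines in 1536-well plates, had been dosed by pin tool the day after seeding with one drug alone or a fixed anchor-drug dose plus five library-drug doses (not always all listed) in √10 steps. Relative viability is the nuclei count in treated wells divided by that in vehicle wells, and each value is the median of duplicate plates.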

[2] = compound: CCN1CCC(CC1)N2C=C(N=N2)CNC3=CC4=C(C(=CN=C4C(=C3)Cl)C#N)NC5=CC(=C(C=C5)F)Cl [KIN001-266] + Cc1nc(Nc2ncc(C(=O)Nc3c(C)cccc3Cl)s2)cc(N2CCN(CCO)CC2)n1 [Dasatinib] (partner 0.075 µM)
Outline: as §1

[3] = compound: CCN1CCC(CC1)N2C=C(N=N2)CNC3=CC4=C(C(=CN=C4C(=C3)Cl)C#N)NC5=CC(=C(C=C5)F)Cl [KIN001-266] + Cc1nc(NC(=O)N2CCC[C@H]2C(N)=O)sc1-c1ccnc(C(C)(C)C(F)(F)F)c1 [Alpelisib] (partner 2 µM)
Outline: as §1

[4] = compound: CCN1CCC(CC1)N2C=C(N=N2)CNC3=CC4=C(C(=CN=C4C(=C3)Cl)C#N)NC5=CC(=C(C=C5)F)Cl [KIN001-266] + CC(C)C[C@H](NC(=O)[C@H](Cc1ccccc1)NC(=O)c1cnccn1)B(O)O [Bortezomib] (partner 0.002 µM)
Outline: as §1

EMC-BAC-2 gave a relative viability ([1]; first compound 0.08 µM) of 0.54, a relative viability ([1]; first compound 0.253 µM) of 0.581 and a relative viability ([1]; first compound 0.8 µM) of 0.523. For the same cell line, the relative viability ([1]; first compound 2.53 µM) was 0.562, the relative viability ([1]; first compound 8 µM) was 0.561 and the relative viability ([2]; first compound 0.08 µM) was 0.352. The relative viability ([2]; first compound 0.253 µM) was 0.392, the relative viability ([2]; first compound 0.8 µM) was 0.319 and the relative viability ([2]; first compound 2.53 µM) was 0.373. It also gave a relative viability ([2]; first compound 8 µM) of 0.331, a relative viability ([3]; first compound 0.08 µM) of 0.718 and a relative viability ([3]; first compound 0.253 µM) of 0.751. It also gave a relative viability ([3]; first compound 0.8 µM) of 0.749, a relative viability ([3]; first compound 2.53 µM) of 0.743 and a relative viability ([3]; first compound 8 µM) of 0.733. The relative viability ([4]; first compound 0.08 µM) was 1.07, the relative viability ([4]; first compound 0.253 µM) was 1.11 and the relative viability ([4]; first compound 0.8 µM) was 1.02. For the same cell line, the relative viability ([4]; first compound 2.53 µM) was 1.04 and the relative viability ([4]; first compound 8 µM) was 1.04.

For LCLC-97TM1, the relative viability ([1]; first compound 0.08 µM) was 0.201, the relative viability ([1]; first compound 0.253 µM) was 0.233 and the relative viability ([1]; first compound 0.8 µM) was 0.216. It also gave a relative viability ([1]; first compound 8 µM) of 0.235, a relative viability ([2]; first compound 0.08 µM) of 0.905 and a relative viability ([2]; first compound 0.253 µM) of 0.812. It also gave a relative viability ([2]; first compound 0.8 µM) of 0.825, a relative viability ([2]; first compound 2.53 µM) of 0.746 and a relative viability ([2]; first compound 8 µM) of 0.848. For the same cell line, the relative viability ([3]; first compound 0.08 µM) was 0.268, the relative viability ([3]; first compound 0.253 µM) was 0.217 and the relative viability ([3]; first compound 0.8 µM) was 0.236. It also gave a relative viability ([3]; first compound 2.53 µM) of 0.222, a relative viability ([3]; first compound 8 µM) of 0.236 and a relative viability ([4]; first compound 0.08 µM) of 0.679. For the same cell line, the relative viability ([4]; first compound 0.253 µM) was 0.595, the relative viability ([4]; first compound 0.8 µM) was 0.489 and the relative viability ([4]; first compound 2.53 µM) was 0.731. It also gave a relative viability ([4]; first compound 8 µM) of 0.337.

In the case of H3255, the relative viability ([1]; first compound 0.08 µM) is reported as 0.336, the relative viability ([1]; first compound 0.253 µM) is reported as 0.3 and the relative viability ([1]; first compound 0.8 µM) is reported as 0.307. The relative viability ([1]; first compound 2.53 µM) was 0.311, the relative viability ([1]; first compound 8 µM) was 0.282 and the relative viability ([2]; first compound 0.08 µM) was 0.359. For the same cell line, the relative viability ([2]; first compound 0.253 µM) was 0.334, the relative viability ([2]; first compound 0.8 µM) was 0.288 and the relative viability ([2]; first compound 2.53 µM) was 0.404. For the same cell line, the relative viability ([2]; first compound 8 µM) was 0.346, the relative viability ([3]; first compound 0.08 µM) was 0.685 and the relative viability ([3]; first compound 0.253 µM) was 0.737. The relative viability ([3]; first compound 0.8 µM) was 0.756, the relative viability ([3]; first compound 2.53 µM) was 0.785 and the relative viability ([3]; first compound 8 µM) was 0.475. The relative viability ([4]; first compound 0.08 µM) was 0.899, the relative viability ([4]; first compound 0.253 µM) was 0.775 and the relative viability ([4]; first compound 0.8 µM) was 0.838. For the same cell line, the relative viability ([4]; first compound 2.53 µM) was 0.788 and the relative viability ([4]; first compound 8 µM) was 0.699.

LXF-289 gave a relative viability ([1]; first compound 0.08 µM) of 0.589, a relative viability ([1]; first compound 0.253 µM) of 0.618 and a relative viability ([1]; first compound 0.8 µM) of 0.596. It also gave a relative viability ([1]; first compound 2.53 µM) of 0.606, a relative viability ([1]; first compound 8 µM) of 0.629 and a relative viability ([2]; first compound 0.08 µM) of 0.24. For the same cell line, the relative viability ([2]; first compound 0.253 µM) was 0.193, the relative viability ([2]; first compound 0.8 µM) was 0.232 and the relative viability ([2]; first compound 2.53 µM) was 0.261. The relative viability ([2]; first compound 8 µM) was 0.203, the relative viability ([3]; first compound 0.08 µM) was 1.05 and the relative viability ([3]; first compound 0.253 µM) was 1.03. For the same cell line, the relative viability ([3]; first compound 0.8 µM) was 1.01, the relative viability ([3]; first compound 2.53 µM) was 1.05 and the relative viability ([3]; first compound 8 µM) was 1.03. For the same cell line, the relative viability ([4]; first compound 0.08 µM) was 0.954, the relative viability ([4]; first compound 0.253 µM) was 0.987 and the relative viability ([4]; first compound 0.8 µM) was 0.95. For the same cell line, the relative viability ([4]; first compound 2.53 µM) was 0.972 and the relative viability ([4]; first compound 8 µM) was 1.03.

Cell Line UMC-11 has a relative viability ([1]; first compound 0.08 µM) of 0.293, a relative viability ([1]; first compound 0.253 µM) of 0.338 and a relative viability ([1]; first compound 0.8 µM) of 0.304. The relative viability ([1]; first compound 2.53 µM) was 0.329, the relative viability ([1]; first compound 8 µM) was 0.391 and the relative viability ([2]; first compound 0.08 µM) was 0.438. For the same cell line, the relative viability ([2]; first compound 0.253 µM) was 0.452, the relative viability ([2]; first compound 0.8 µM) was 0.481 and the relative viability ([2]; first compound 2.53 µM) was 0.421. It also gave a relative viability ([2]; first compound 8 µM) of 0.382, a relative viability ([3]; first compound 0.08 µM) of 0.927 and a relative viability ([3]; first compound 0.253 µM) of 0.931. The relative viability ([3]; first compound 0.8 µM) was 1.11, the relative viability ([3]; first compound 2.53 µM) was 0.952 and the relative viability ([3]; first compound 8 µM) was 0.604. For the same cell line, the relative viability ([4]; first compound 0.08 µM) was 0.703, the relative viability ([4]; first compound 0.253 µM) was 0.543 and the relative viability ([4]; first compound 0.8 µM) was 0.71. It also gave a relative viability ([4]; first compound 2.53 µM) of 0.638 and a relative viability ([4]; first compound 8 µM) of 0.738.

For LC-2-ad, the relative viability ([1]; first compound 0.08 µM) was 0.535, the relative viability ([1]; first compound 0.253 µM) was 0.527 and the relative viability ([1]; first compound 0.8 µM) was 0.484. It also gave a relative viability ([1]; first compound 2.53 µM) of 0.499, a relative viability ([1]; first compound 8 µM) of 0.478 and a relative viability ([2]; first compound 0.08 µM) of 0.661. It also gave a relative viability ([2]; first compound 0.253 µM) of 0.533, a relative viability ([2]; first compound 0.8 µM) of 0.626 and a relative viability ([2]; first compound 2.53 µM) of 0.8. It also gave a relative viability ([2]; first compound 8 µM) of 0.632, a relative viability ([3]; first compound 0.08 µM) of 0.897 and a relative viability ([3]; first compound 0.253 µM) of 0.776. The relative viability ([3]; first compound 0.8 µM) was 0.918, the relative viability ([3]; first compound 2.53 µM) was 0.783 and the relative viability ([3]; first compound 8 µM) was 0.869. It also gave a relative viability ([4]; first compound 0.08 µM) of 0.954, a relative viability ([4]; first compound 0.253 µM) of 0.948 and a relative viability ([4]; first compound 0.8 µM) of 1.02. For the same cell line, the relative viability ([4]; first compound 2.53 µM) was 1.03 and the relative viability ([4]; first compound 8 µM) was 0.956.

For A-427, the relative viability ([1]; first compound 0.08 µM) was 0.511, the relative viability ([1]; first compound 0.253 µM) was 0.524 and the relative viability ([1]; first compound 0.8 µM) was 0.5. For the same cell line, the relative viability ([1]; first compound 2.53 µM) was 0.493, the relative viability ([1]; first compound 8 µM) was 0.526 and the relative viability ([2]; first compound 0.08 µM) was 0.742. It also gave a relative viability ([2]; first compound 0.253 µM) of 0.614, a relative viability ([2]; first compound 0.8 µM) of 0.661 and a relative viability ([2]; first compound 2.53 µM) of 0.686. For the same cell line, the relative viability ([2]; first compound 8 µM) was 0.575, the relative viability ([3]; first compound 0.08 µM) was 1.12 and the relative viability ([3]; first compound 0.253 µM) was 1.05. The relative viability ([3]; first compound 0.8 µM) was 1.04, the relative viability ([3]; first compound 2.53 µM) was 1.02 and the relative viability ([3]; first compound 8 µM) was 0.998. The relative viability ([4]; first compound 0.08 µM) was 1.06, the relative viability ([4]; first compound 0.253 µM) was 1 and the relative viability ([4]; first compound 0.8 µM) was 0.955. It also gave a relative viability ([4]; first compound 2.53 µM) of 0.982 and a relative viability ([4]; first compound 8 µM) of 0.817.

In the case of NCI-H322M, the relative viability ([1]; first compound 0.08 µM) is reported as 0.455, the relative viability ([1]; first compound 0.253 µM) is reported as 0.479 and the relative viability ([1]; first compound 0.8 µM) is reported as 0.477. The relative viability ([1]; first compound 2.53 µM) was 0.387, the relative viability ([1]; first compound 8 µM) was 0.448 and the relative viability ([2]; first compound 0.08 µM) was 0.272. It also gave a relative viability ([2]; first compound 0.253 µM) of 0.27, a relative viability ([2]; first compound 0.8 µM) of 0.265 and a relative viability ([2]; first compound 2.53 µM) of 0.238. For the same cell line, the relative viability ([2]; first compound 8 µM) was 0.242, the relative viability ([3]; first compound 0.08 µM) was 0.648 and the relative viability ([3]; first compound 0.253 µM) was 0.87. It also gave a relative viability ([3]; first compound 0.8 µM) of 0.8, a relative viability ([3]; first compound 2.53 µM) of 0.694 and a relative viability ([3]; first compound 8 µM) of 0.689. It also gave a relative viability ([4]; first compound 0.08 µM) of 1.16, a relative viability ([4]; first compound 0.253 µM) of 1.43 and a relative viability ([4]; first compound 0.8 µM) of 1.34. The relative viability ([4]; first compound 2.53 µM) was 1.23 and the relative viability ([4]; first compound 8 µM) was 1.18.
